Measured values from ChEMBL document CHEMBL5137024, “Discovery of novel coumarin-indole derivatives as tubulin polymerization inhibitors with potent anti-gastric cancer activities” (Eur J Med Chem, 2022).
Calls of active or inactive are those of the source. The rule behind the calls is not given here.

Tests used:
Tubulin (Homo sapiens) [1] = target: T1, Tubulin (Homo sapiens) (UniProt P68371+Q9H4B7+P0DPH7+P68366+Q13509+Q71U36+P04350+Q3ZCM7+P07437+P68363+Q9BQE3+Q6PEY2+Q13885+Q9BVA1+Q9BUF5); assay: Disruption of microtubule network in human HGC-27 cells assessed as incomplete mitosis at 10 to 30 nM measured after 48 hrs by DAPI staining based fluorescence microscopic analysis; format: cell-based; settings: dose 10-30 nM
MGC-803 [2] = assay: Antitumor activity against human MGC-803 cells xenografted BALB/c nude mouse assessed as tumor growth inhibition at 15 mg/kg, ip administered once daily for 21 days; format: functional; settings: MGC-803, 504 h, time 21 day, read-out: TGI
HGC-27 [3] = assay: Inhibition of ERK signalling pathway in human HGC-27 cells assessed as downregulation of MEK1/2 phosphorylation at 10 to 30 nM incubated for 48 hrs; format: cell-based; settings: dose 10-30 nM
[4] = Toxicity in BALB/c nude mouse xenografted with human MGC-803 cells assessed as pathological changes in kidney at 15 to 30 mg/kg, ip administered once daily for 21 days by Hematoxyin-eosin staining based analysis; format: organism-based; settings: in vivo, 504 h, dose 15-30 mg/kg, time 21 day
HGC-27 [5] = assay: Inhibition of p38 signalling pathway in human HGC-27 cells assessed as reduction in p38 phosphorylation at 10 to 30 nM incubated for 48 hrs; format: cell-based; settings: dose 10-30 nM
HGC-27 [6] = assay: Induction of apoptosis in human HGC-27 cells assessed as increase in dead cells at 10 to 30 nM incubated for 48 hrs by calcein-AM dye/propidium iodide staining based analysis; format: functional, cell-based; settings: dose 10-30 nM
MGC-803 [7] = assay: Inhibition of p38 signalling pathway in human MGC-803 cells assessed as reduction in p38 phosphorylation at 5 to 15 nM incubated for 48 hrs; format: cell-based; settings: dose 5-15 nM
HepG2 = assay: Antiproliferative activity against human HepG2 cells assessed as reduction in cell viability incubated for 48 hrs by MTT assay; format: functional, cell-based; settings: HepG2, 48 h
HCT-116 = assay: cells; settings: Homo sapiens, HCT-116, 48 h
Mus musculus [8] = assay: Downregulation of p38 phosphorylation in tumor tissue of BALB/c nude mouse xenografted with human MGC-803 cells at 15 to 30 mg/kg, ip administered once daily for 21 days by Western blotting analysis; format: functional, organism-based; settings: dose 15-30 mg/kg, time 21.0 day
Tubulin (Homo sapiens) [9] = target: T1, Tubulin (Homo sapiens); assay: Disruption of microtubule network in human HGC-27 cells assessed as irregular form of filamentous microtubule structures at 10 to 30 nM measured after 48 hrs by DAPI staining based fluorescence microscopic analysis; format: cell-based; settings: dose 10-30 nM
MGC-803 [10] = assay: Antiproliferative activity against human MGC-803 cells assessed as reduction in cell viability incubated for 12 to 48 hrs by MTT assay; format: functional, cell-based; settings: dose 15-30 nM, time 12-48 hrs, DDE = dose-dependent effect
HGC-27 [11] = assay: Downregulation of Wee1 expression in human HGC-27 cells at 10 to 30 nM incubated for 48 hrs; format: functional, cell-based; settings: dose 10-30 nM
Mus musculus [12] = assay: Upregulation of phosphorylated Histone H3 expression in tumor tissue of BALB/c nude mouse xenografted with human MGC-803 cells at 15 to 30 mg/kg, ip administered once daily for 21 days by Western blotting analysis; format: functional, organism-based; settings: dose 15-30 mg/kg, time 21.0 day
MGC-803 [13] = assay: Induction of apoptosis in human MGC-803 cells assessed as upregulation of DR5 level; format: functional, cell-based; settings: dose 5-15 nM, DDE = dose-dependent effect
HGC-27 [14] = assay: Induction of apoptosis in human HGC-27 cells assessed as upregulation of DR5 level; format: functional, cell-based; settings: dose 10-30 nM, DDE = dose-dependent effect
Tubulin = Tubulin (Sus scrofa, UniProt P02554+P02550); assay: Inhibition of porcine brain tubulin polymerization by fluorescence based assay; format: tissue-based
HGC-27 [15] = assay: Upregulation of phosphorylated Histone H3 expression in human HGC-27 cells at 10 to 30 nM incubated for 48 hrs; format: functional, cell-based; settings: dose 10-30 nM
MGC-803 [16] = assay: Induction of apoptosis in human MGC-803 cells assessed as decrease in cell density at 5 to 15 nM incubated for 48 hrs by bright field imaging analysis; format: functional, cell-based; settings: dose 5-15 nM
[17] = Toxicity in BALB/c nude mouse xenografted with human MGC-803 cells assessed as pathological changes in spleen at 15 to 30 mg/kg, ip administered once daily for 21 days by Hematoxyin-eosin staining based analysis; format: organism-based; settings: in vivo, 504 h, dose 15-30 mg/kg, time 21 day
MGC-803 [18] = assay: Upregulation of phosphorylated Histone H3 expression in human MGC-803 cells at 5 to 15 nM incubated for 48 hrs; format: functional, cell-based; settings: dose 5-15 nM
MGC-803 [19] = assay: Induction of apoptosis in human MGC-803 cells assessed as cell rounding at 5 to 15 nM incubated for 48 hrs by bright field imaging analysis; format: functional, cell-based; settings: dose 5-15 nM
SGC-7901 = assay: Antiproliferative activity against human SGC-7901 cells assessed as reduction in cell viability incubated for 48 hrs by MTT assay; format: functional, cell-based; settings: SGC-7901, 48 h
HGC-27 [20] = assay: Induction of apoptosis in human HGC-27 cells assessed as increase in Noxa level; format: functional, cell-based; settings: dose 10-30 nM, DDE = dose-dependent effect
Tubulin (Homo sapiens) [21] = target: T1, Tubulin (Homo sapiens); assay: Disruption of microtubule network in human MGC-803 cells assessed as irregular form of filamentous microtubule structures at 5 to 15 nM measured after 48 hrs by DAPI staining based fluorescence microscopic analysis; format: cell-based; settings: dose 5-15 nM
MCF7 = assay: Antiproliferative activity against human MCF7 cells assessed as reduction in cell viability incubated for 48 hrs by MTT assay; format: functional, cell-based; settings: MCF7, 48 h
MGC-803 [22] = assay: Downregulation of Wee1 expression in human MGC-803 cells at 5 to 15 nM incubated for 48 hrs; format: functional, cell-based; settings: dose 5-15 nM
MGC-803 [23] = assay: Induction of apoptosis in human MGC-803 cells assessed as nuclear fragmentation at 5 to 15 nM incubated for 48 hrs by DAPI staining based analysis; format: functional, cell-based; settings: dose 5-15 nM
MGC-803 [24] = assay: Inhibition of ERK signalling pathway in human MGC-803 cells assessed as downregulation of ERK1/2 phosphorylation at 5 to 15 nM incubated for 48 hrs; format: cell-based; settings: dose 5-15 nM
[25] = target: c-Jun N-terminal kinase, JNK (Homo sapiens) (UniProt P45983+P53779+P45984); assay: Inhibition of JNK signalling pathway in human MGC-803 cells assessed as reduction in JNK phosphorylation at 5 to 15 nM incubated for 48 hrs; format: cell-based; settings: dose 5-15 nM
HGC-27 [26] = assay: Induction of apoptosis in human HGC-27 cells assessed as increase in total apoptotic cells at 30 nM incubated for 48 hrs by annexin V FITC and propidium iodide staining based flow cytometry analysis (reference value: 7.2%); format: functional
MGC-803 [27] = assay: Inhibition of ERK signalling pathway in human MGC-803 cells assessed as reduction in downstream substrate MSK1 phosphorylation at 5 to 15 nM incubated for 48 hrs; format: cell-based; settings: dose 5-15 nM
[28] = Induction of mitochondria mediated intrinsic apoptosis in human MGC-803 cells assessed as early apoptotic cells at 10 nM measured after 48 hrs by flow cytometry analysis (Rvb= 1.6%); format: functional
HGC-27 [29] = assay: Downregulation of cdc2 phosphorylation at Thr14 residue in human HGC-27 cells at 10 to 30 nM incubated for 48 hrs; format: functional, cell-based; settings: dose 10-30 nM
MGC-803 [30] = assay: Downregulation of cdc2 phosphorylation at Thr14 residue in human MGC-803 cells at 5 to 15 nM incubated for 48 hrs; format: functional, cell-based; settings: dose 5-15 nM

Activity (Tubulin (Homo sapiens) [1]): Active
IC50 (HepG2): 0.0455 µM
IC50 (HCT-116): 0.033 µM
Activity (Tubulin (Homo sapiens) [9]): Active
IC50 (Tubulin): 2.46 µM
IC50 (SGC-7901): 0.0523 µM
Activity (Tubulin (Homo sapiens) [21]): Active
IC50 (MCF7): 0.435 µM
inhibition [25]: Active
Structure (SMILES): CN(c1ccc2c(ccn2C)c1)c1cc(=O)oc2ccccc12
inhibition in vivo at 15 mg/kg (MGC-803 [2]): 70%
inhibition (HGC-27 [3]): Active
Activity [4]: Non-Toxic
inhibition (HGC-27 [5]): Active
Activity (HGC-27 [6]): Active
inhibition (MGC-803 [7]): Active
Activity (Mus musculus [8]): Active
Activity (MGC-803 [10]): Dde
Activity (HGC-27 [11]): Active
Activity (Mus musculus [12]): Active
Activity (MGC-803 [13]): Dde
Activity (HGC-27 [14]): Dde
Activity (HGC-27 [15]): Active
Activity (MGC-803 [16]): Active
Activity [17]: Non-Toxic
Activity (MGC-803 [18]): Active
Activity (MGC-803 [19]): Active
Activity (HGC-27 [20]): Dde
Activity (MGC-803 [22]): Active
Activity (MGC-803 [23]): Active
inhibition (MGC-803 [24]): Active
Activity (HGC-27 [26]): 47.3%
inhibition (MGC-803 [27]): Active
Activity [28]: 7.2%
Activity (HGC-27 [29]): Active
Activity (MGC-803 [30]): Active
